Several values for one entry are separate records, joined by “and”; a condition that tells them apart may be missing. Identical values can stand only once.
Tested on: LPAR expressed endogenously in Xenopus laevis oocytes
Test: Current response of oocytes to LPA stimulation (two-electrode voltage clamp)
Type: cell-based
Conditions: 1 nM LPA; for Response to LPA, Average: average of six cells, −60 mV; for Response to LPA (difference between current value before LPA stimulation and peak current value after): individual cells, membrane potential fixed to −60 mV
Source text: First, an ovary is extracted from a female Xenopus laevis by a conventional method, and oocytes are isolated from the ovary by an enzymic treatment or the like. Oocytes not suitable for experiments are removed by a microscopic observation of their appearances such as size, shape, color and pattern. From the remaining group of oocytes, several cells, preferably 3 to 10 cells, more preferably 4 to 7 cells, and most preferably 6 cells are extracted at random. The membrane potential of the extracted oocytes is fixed to a constant voltage, for example, […] to −40 mV or +20 mV to +60 mV, preferably −60 mV by a known method such as two-electrode voltage clamp method or patch clamp method (See, e.g., Shin pacchikuranpu jikkengijutuhou, ed. Okada Yasunobu, Yoshiokashoten, Joron Ion Chaneru, pp. 1-14). By fixing the membrane potential, it is possible to measure the ionic current passing through channels or transporters of electrically resistant nature.
To the oocyte after fixing to a certain potential was added about 1 pM to 10 μM, preferably 100 pM to 100 nM, and most preferably 10 nM of LPA, followed by measurement of current response of the oocyte. An average current response is determined for a group of oocytes measured where the current response to LPA stimulation is the difference between the peak current value before LPA addition and the peak current value after LPA addition, providing the response of GPCR for a group of oocytes containing a brood of oocytes. A group of oocytes having a response of GPCR higher than a certain desirable value or within a certain desirable range are selected. The oocytes belonging to the group of oocytes selected in this way originate from a mother, and therefore, each oocyte has genetically nearly equal response of GPCR and may be considered excellent in response of GPCR.
Ovaries were extracted from mother bodies A, B, and C, and their follicle cells were removed by a conventional method. The oocytes after removal of follicles were selected based on their appearances that seemed suitable for experiments, and groups of oocytes were saved separately for each mother body (batches A, B, and C). From each batch, six oocytes were extracted at random, respectively.
The membrane potential of each cell was fixed to −60 mV by the two-electrode voltage clamp method. Each cell was stimulated by 1 nM LPA, and then the current response was measured. The difference between the current value before LPA stimulation and the peak current value after LPA stimulation was determined for each cell and shown in Table 1. There were differences in the responses to LPA among the batches.

Substance: Lysophosphatidic acid [LPA]
- Response to LPA, Average (Batch A oocytes): 0.8 μA
- Response to LPA (difference between current value before LPA stimulation and peak current value after) (Batch A oocytes): 1.1 μA and 1.5 μA and 0.6 μA (2×) and 0.3 μA and 0.8 μA
- Response to LPA, Average (Batch B oocytes): 2.0 μA
- Response to LPA (difference between current value before LPA stimulation and peak current value after) (Batch B oocytes): 2.5 μA and 1.8 μA and 2.6 μA and 1.1 μA and 2.3 μA and 1.4 μA
- Response to LPA, Average (Batch C oocytes): 0.2 μA
- Response to LPA (difference between current value before LPA stimulation and peak current value after) (Batch C oocytes): 0.1 μA (2×) and 0.3 μA and 0.4 μA and 0.0 μA and 0.2 μA

Source: patent US20050084839A1, “Method for selecting oocytes by using a response to LPA stimulation” (Hitachi, Ltd., priority 2003, published 2005)
